Laboratory results published in patent publication EP0072027A1, “Antiviral compounds” (THE WELLCOME FOUNDATION LIMITED, priority 1981, dated 1983).
Marks after values point to notes of the source that are not given here.

Experiments:
[1] = test system: Equine rhinopneumonitis virus (EHV-1); experiment: In vivo activity against equine rhinopneumonitis virus in hamsters (Example 14), intraperitoneal and oral; parameters: species or system Syrian weanling hamsters
Description: Male cream Syrian weanling hamsters, 40-50 g, 21-24 days old, were caged in groups of 5 and given water and food ad lib.
Equine rhinopneumonitis virus (EHV-1), hamster adapted Vaccine Strain 'Pneumabort' was used; the vaccine was diluted 10^-1 in tissue culture fluid and this stock stored in 1 ml aliquots in sealed glass vials at -70°C. On Day 0 hamsters to be infected received 0.2 ml stock vaccine virus, diluted further 2 x 10^-1 in phosphate buffered saline, subcutaneously in the left flank.
9-/(2-Hydroxy-l-hydroxymethylethoxy)methyl/guanine (hereinafter referred to as 759U) and acyclovir were made up as aqueous solutions in sterile distilled water in the concentrations specified below.
Intraperitoneal administration: from Day 0 to Day 4, inclusive, hamsters received 759U or acyclovir in divided twice daily doses in aqueous solution, the concentration of 759U varying as following, namely 5 mg/ml to give a dose rate of 100 or 50 mg/kg/day, 1.2 mg/ml for 20 mg/kg/day, […] for 4 mg/kg/day and 0.036 mg/ml for 2 mg/kg/day. Untreated control hamsters received an equivalent volume of sterile distilled water.
A stock solution of 759U was made in sterile distilled water at 0.304 mg/ml and then diluted in 3-fold steps to 0.101 and 0.034 mg/ml. Hamsters were given medicated drinking water for 5 days commencing 5 hours pre-infection. A control group was supplied with unmedicated water.
Acyclovir was dissolved in sterile distilled water at 2 mg/ml with the addition of a little sodium hydroxide and warming to 42°C to facilitate solution. Hamsters were given medicated drinking water, containing acyclovir at 2 mg/ml, for 5 days commencing 5 hours pre-infection. […] A control group supplied with unmedicated water was set up.

[2] = test system: herpes simplex virus type 1; experiment: Comparative in vivo activity against herpetic encephalitis in mice (Example 18); parameters: species or system CD.1 mice; details: for Mean reciprocal survival time: 100 mg/kg/dose twice daily for 4½ days, 300 LD50
Description: CD.1 mice weighing 16 - 20 gm were obtained from Charles River, Manston, Kent, U.K. The animals were housed in groups of approximately 10 and were given food and water ad lib.
The compounds namely acyclovir, 134U, 759U and 457U, were prepared as suspensions or solutions in sterile water at a concentration of 20 mg/ml prior to each experiment, and were stored at 4°C during the dosing period.
The ICI strain of herpes simplex virus type 1 was used for all experiments at a concentration of 300 LD50 (10^5 pfu)/ml). Dilutions from virus stocks ([…]) were prepared in PBS 'A'.
The test procedure is analoguous to that described in Example 13.
Three experiments were performed, in which three routes of compound administration were examined: i) subcutaneous, ii) oral and iii) intraperitoneal. […]

Herpes simplex type 1 = experiment: In vitro plaque reduction in VERO cell cultures (Example 16); assay type: cell-based; details: for IC50: Human alphaherpesvirus 1, Vero, VERO cells
Description: 60mm plastic cell culture dishes were seeded with a VERO cell suspension (6 ml of 2 x 10^5 cells/ml) in VERO cell growth medium comprising 5% foetal calf serum, 10% Eagles minimal essential medium, 0.11% sodium bicarbonate,0.25% Crystamycin.
(50,000 units/ml sodium benzyl penicillin B.P. and 50 mg/ml streptomcyin sulphate B.P.). The dishes were gently shaken to ensure the complete dispersion of the cells and then the cultures were incubated at 37°C in an atmosphere of 5% CO2/air overnight to attain confluency. The growth medium was then replaced with 2 ml of virus (Herpes simplex type 1) inoculum in phosphate buffered saline (PBS). The virus concentration was such as to induce the formation of 200-400 plaques/plate. A period of 1 hour was allowed for virus absorption at 37°C in 5% COZair, after which time the plates were drained and overlay medium (8 ml) was added at 42 °C. The overlay medium consisted of 0.6% agarose, 2% foetal calf serum, 10% Eagle's minimal essential medium, 0.11% sodium bicarbonate and 0.25% Crystamycin.
Doubling dilutions in micromolarity of active compound were prepared in the overlay and replicate cultures were fed with the maintenance medium overlay containing a range of concentrations of the compound. Untreated virus control cultures and uninfected cultures were also prepared. The overlay was allowed to solidify at room temperature before the cultures were returned to the incubator at 37°C in 5% CO2/air for 4 days. The cultures were then fixed with 10% formalin in PBS for 30 minutes to 1 hour; the overlay was removed and the cells were stained with 0.05% w/v methyl violet in 20% methanol. The resultant plaques were counted and expressed as a percentage of the plaque count of the untreated virus control cultures. These values were then plotted against the log10 of the compound concentration and the IC50 values representing the amount of the compound required to reduce the plaque count by 50% was read from the resulting dose-response line.

[3] = 50 mg/kg/day intraperitoneal, Day 2, 10 in group
[4] = 50 mg/kg/day intraperitoneal, Day 3, 10 in group
[5] = 50 mg/kg/day intraperitoneal, Day 4, 10 in group
[6] = 50 mg/kg/day intraperitoneal, Day 5, 10 in group
[7] = 50 mg/kg/day intraperitoneal, Day 6, 10 in group
[8] = 50 mg/kg/day intraperitoneal, Day 7, 10 in group
[9] = 100 mg/kg/day intraperitoneal, Day 2, 10 in group
[10] = 100 mg/kg/day intraperitoneal, Day 3, 10 in group
[11] = 100 mg/kg/day intraperitoneal, Day 4, 10 in group
[12] = 100 mg/kg/day intraperitoneal, Day 5, 10 in group
[13] = 100 mg/kg/day intraperitoneal, Day 6, 10 in group
[14] = 100 mg/kg/day intraperitoneal, Day 7, 10 in group
[15] = Experiment 1, plaque count reduced by 50%
[16] = Experiment 2, plaque count reduced by 50%
[17] = Experiment 3, plaque count reduced by 50%

`Nc1nc2c(ncn2COC(CO)CO)c(=O)[nH]1` [Example 759U, 9-[(2-hydroxy-1-hydroxymethylethoxy)methyl]guanine] gave a Cumulative mortality ([1]; 2 mg/kg/day intraperitoneal, Day 2, 10 in group) of 0, a Cumulative mortality ([1]; 2 mg/kg/day intraperitoneal, Day 3, 10 in group) of 0 and a Cumulative mortality ([1]; 2 mg/kg/day intraperitoneal, Day 4, 10 in group) of 0. The Cumulative mortality ([1]; 2 mg/kg/day intraperitoneal, Day 5, 10 in group) was 0, the Cumulative mortality ([1]; 2 mg/kg/day intraperitoneal, Day 6, 10 in group) was 0 and the Cumulative mortality ([1]; 2 mg/kg/day intraperitoneal, Day 7, 10 in group) was 0. The “control of virus-induced mortality” value ([1]; 2 mg/kg/day intraperitoneally) was “complete control”, the Cumulative mortality ([1]; 3 mg/kg/day oral (drinking water), Day 2, 10 in group) was 0 and the Cumulative mortality ([1]; 3 mg/kg/day oral (drinking water), Day 3, 10 in group) was 1. It also gave a Cumulative mortality ([1]; 3 mg/kg/day oral (drinking water), Day 4, 10 in group) of 1, a Cumulative mortality ([1]; 3 mg/kg/day oral (drinking water), Day 5, 10 in group) of 1 and a Cumulative mortality ([1]; 3 mg/kg/day oral (drinking water), Day 6, 10 in group) of 1. The Cumulative mortality ([1]; 3 mg/kg/day oral (drinking water), Day 7, 10 in group) was 1, the Cumulative mortality ([1]; 4 mg/kg/day intraperitoneal, Day 2, 10 in group) was 0 and the Cumulative mortality ([1]; 4 mg/kg/day intraperitoneal, Day 3, 10 in group) was 0. The Cumulative mortality ([1]; 4 mg/kg/day intraperitoneal, Day 4, 10 in group) was 0, the Cumulative mortality ([1]; 4 mg/kg/day intraperitoneal, Day 5, 10 in group) was 0 and the Cumulative mortality ([1]; 4 mg/kg/day intraperitoneal, Day 6, 10 in group) was 0. The Cumulative mortality ([1]; 4 mg/kg/day intraperitoneal, Day 7, 10 in group) was 0, the Cumulative mortality ([1]; 13 mg/kg/day oral (drinking water), Day 2, 10 in group) was 0 and the Cumulative mortality ([1]; 13 mg/kg/day oral (drinking water), Day 3, 10 in group) was 0. For the same compound, the Cumulative mortality ([1]; 13 mg/kg/day oral (drinking water), Day 4, 10 in group) was 0, the Cumulative mortality ([1]; 13 mg/kg/day oral (drinking water), Day 5, 10 in group) was 0 and the Cumulative mortality ([1]; 13 mg/kg/day oral (drinking water), Day 6, 10 in group) was 0. It also gave a Cumulative mortality ([1]; 13 mg/kg/day oral (drinking water), Day 7, 10 in group) of 0, a Cumulative mortality ([1]; 20 mg/kg/day intraperitoneal, Day 2, 10 in group) of 0 and a Cumulative mortality ([1]; 20 mg/kg/day intraperitoneal, Day 3, 10 in group) of 0. It also gave a Cumulative mortality ([1]; 20 mg/kg/day intraperitoneal, Day 4, 10 in group) of 0, a Cumulative mortality ([1]; 20 mg/kg/day intraperitoneal, Day 5, 10 in group) of 0 and a Cumulative mortality ([1]; 20 mg/kg/day intraperitoneal, Day 6, 10 in group) of 0. It also gave a Cumulative mortality ([1]; 20 mg/kg/day intraperitoneal, Day 7, 10 in group) of 0, a Cumulative mortality ([1]; 39 mg/kg/day oral (drinking water), Day 2, 10 in group) of 0 and a Cumulative mortality ([1]; 39 mg/kg/day oral (drinking water), Day 3, 10 in group) of 0. It also gave a Cumulative mortality ([1]; 39 mg/kg/day oral (drinking water), Day 4, 10 in group) of 0, a Cumulative mortality ([1]; 39 mg/kg/day oral (drinking water), Day 5, 10 in group) of 0 and a Cumulative mortality ([1]; 39 mg/kg/day oral (drinking water), Day 6, 10 in group) of 0. The Cumulative mortality ([1]; 39 mg/kg/day oral (drinking water), Day 7, 10 in group) was 0, the Cumulative mortality [1, 3] was 0 and the Cumulative mortality [1, 4] was 0. The Cumulative mortality [1, 5] was 0, the Cumulative mortality [1, 6] was 0 and the Cumulative mortality [1, 7] was 0. The Cumulative mortality [1, 8] was 0, the Cumulative mortality [1, 9] was 0 and the Cumulative mortality [1, 10] was 0. The Cumulative mortality [1, 11] was 0, the Cumulative mortality [1, 12] was 0 and the Cumulative mortality [1, 13] was 0. The Cumulative mortality [1, 14] was 1*, the “efficacy against EHV-1” value ([1]; orally at 3 mg/kg/day) was “only limited mortality” and the “efficacy against EHV-1” value ([1]; orally at 13 mg/kg/day) was “completely effective”. The “Mean reciprocal survival time” value ([2]; Oral) was 0.146, the “antiviral effect compared with acyclovir and 134U” value ([2]; any of the three routes, difference highly significant) was “greatest antiviral effect” and the “Mean reciprocal survival time” value ([2]; i.p.) was 0.093. The “Mean reciprocal survival time” value ([2]; s.c.) was 0.084, the “activity in vitro against Herpes simplex type I compared with acyclovir” value (Herpes simplex type 1) was “greater activity” and the IC50 (Herpes simplex type 1; [15]) was 90 nM. For the same compound, the IC50 (Herpes simplex type 1; [16]) was 50 nM, the IC50 (Herpes simplex type 1; [17]) was 36 nM and the IC50 (Herpes simplex type 1; Mean of Experiments 1-3) was 59 nM.

Compound `Nc1nc2c(ncn2COCCO)c(=O)[nH]1` [acyclovir, 9-(2-hydroxyethoxymethyl) guanine, reference compound] has a Cumulative mortality [1, 3] of 0, a Cumulative mortality [1, 4] of 1 and a Cumulative mortality [1, 5] of 2. It also gave a Cumulative mortality [1, 6] of 5, a Cumulative mortality [1, 7] of 6 and a Cumulative mortality [1, 8] of 6. The Cumulative mortality [1, 9] was 0, the Cumulative mortality [1, 10] was 0 and the Cumulative mortality [1, 11] was 1*. The Cumulative mortality [1, 12] was 2*, the Cumulative mortality [1, 13] was 2* and the Cumulative mortality [1, 14] was 3*. For the same compound, the Cumulative mortality ([1]; 100 mg/kg/day oral (drinking water 2 mg/ml), Day 2, 12 in group) was 0, the Cumulative mortality ([1]; 100 mg/kg/day oral (drinking water 2 mg/ml), Day 3, 12 in group) was 2 and the Cumulative mortality ([1]; 100 mg/kg/day oral (drinking water 2 mg/ml), Day 4, 12 in group) was 5. For the same compound, the Cumulative mortality ([1]; 100 mg/kg/day oral (drinking water 2 mg/ml), Day 5, 12 in group) was 7, the Cumulative mortality ([1]; 100 mg/kg/day oral (drinking water 2 mg/ml), Day 6, 12 in group) was 8 and the “efficacy against EHV-1” value ([1]; orally at 100 mg/kg/day for 5 days) was “poor efficacy”. The “Mean reciprocal survival time” value ([2]; Oral) was 0.237, the “Mean reciprocal survival time” value ([2]; i.p.) was 0.236 and the “Mean reciprocal survival time” value ([2]; s.c.) was 0.174. It also gave an IC50 (Herpes simplex type 1; [15]) of 170 nM, an IC50 (Herpes simplex type 1; [16]) of 75 nM and an IC50 (Herpes simplex type 1; [17]) of 110 nM. It also gave an IC50 (Herpes simplex type 1; Mean of Experiments 1-3) of 118 nM.
